# Laboratory results reported in patent US20220071932A1, “Compositions and Methods Against Stress-Induced Affective Disorders and Their Associated Symptoms” (The Trustees of Columbia University in the City of New York, priority 2019, published 2022).
# Tests used:
# 129S6/SvEv mice [1] = experiment: Contextual fear conditioning (CFC), 3-shock; freezing; type: in vivo; settings: for p, Freezing (%), CFC Re-exposure 2, Saline vs. drug: drug 5 min after re-exposure 1; for Behavior: Fear: dose 30 mg/kg
# Protocol: A 3-shock CFC paradigm was administered as previously described (45, 46). CFC was conducted in chambers obtained from Med Associates (St. Albans, Vt.), with internal dimensions of approximately 20 cm wide×16 cm deep×20.5 cm high. The chambers had metal walls on each side, clear plastic front and back walls and ceilings, and stainless-steel bars on the floor. A house light (CM1820 bulb, 28v, 100 mA) mounted directly above the chamber provided illumination. Each chamber was located inside a larger, insulated, plastic cabinet that provided protection from outside light and noise. Each cabinet contained a ventilation fan that was operated during the sessions. A paper towel dabbed with lemon solution was placed underneath the chamber floor. Mice were held outside the experimental room in their home cages prior to testing and transported to the conditioning apparatus individually in standard mouse cages Chambers were cleaned with 70% EtOH between each set of mice. Mice were placed into the conditioning chamber and received shocks at 180 s, 240 s, and 300 s (2 s duration, 0.75 mA). Fifteen seconds after the last shock, mice were removed from the chamber. Overall, the training session lasted 317 s. […] All sessions were scored for freezing using FreezeFrame4.
# 129S6/SvEv mice [2] = experiment: Novelty suppressed feeding (NSF); type: in vivo
# Protocol: Testing was performed as previously described (47). Briefly, the NSF testing apparatus consisted of a plastic box (50×50×20 cm). The floor of which was covered with approximately 2 cm of wooden bedding and the arena was brightly lit (approximately 1000 lux). Mice were food restricted for 24 h prior to testing. At the time of testing, a single pellet of food (regular chow) was placed on a white paper platform positioned in the center of the box. Each animal was placed in a corner of the box, and a stopwatch was immediately started. The latency of the mice to begin eating in the arena was recorded Immediately after the latency was recorded, the food pellet was removed from the arena. The mice were then placed back into their home cage. The latency to eat and the amount of food consumed in 5 min were measured (home cage consumption), followed by an assessment of post-restriction weight. A Kaplan-Meier survival analysis was used due to the lack of normal distribution of data. The Mantel-Cox log-rank test was used to evaluate differences between the experimental groups.
# [3] = 30 mg/kg, drug 1 week before stress, FIG. 1C
# [4] = 30 mg/kg, drug 5 minutes after stress, FIG. 2C
# [5] = 5 min prior to CFC, (R,S)-ketamine 30 mg/kg, FENM 20 mg/kg, vs saline
# [6] = Saline vs. (R,S)-ketamine (30 mg/kg), FIG. 8D
# [7] = Saline vs. (R,S)-ketamine (30 mg/kg), FIG. 8F
# [8] = 5 min after context re-exposure 1, (R,S)-ketamine 30 mg/kg, FENM 20 mg/kg, vs saline
# [9] = 5 minutes after CFC, re-exposure 1 day after training, (R,S)-ketamine 30 mg/kg, FENM 20 mg/kg, vs saline
# [10] = 5 minutes prior to re-exposure 1, (R,S)-ketamine 30 mg/kg, FENM 20 mg/kg, vs saline
smiles,measurement,setting,value
"CNC1(c2ccccc2Cl)CCCCC1=O (racemic) [(R,S)-ketamine, reference compound]","p, Fisher's LSD Saline vs. drug, CFC Re-exposure Freezing Min 1 (%)",129S6/SvEv mice [1]; [3],0.0101
same,"p, Fisher's LSD Saline vs. drug, CFC Re-exposure Freezing Min 2 (%)",129S6/SvEv mice [1]; [3],0.0012
same,"p, Fisher's LSD Saline vs. drug, CFC Re-exposure Freezing Min 3 (%)",129S6/SvEv mice [1]; [3],0.0320
same,"p, Fisher's LSD Saline vs. drug, CFC Re-exposure Freezing Min 4 (%)",129S6/SvEv mice [1]; [3],0.0592
same,"p, Fisher's LSD Saline vs. drug, CFC Re-exposure Freezing Min 5 (%)",129S6/SvEv mice [1]; [3],0.4016
same,"p, Fisher's LSD Saline vs. drug, CFC Re-exposure Freezing (%)","129S6/SvEv mice [1]; 30 mg/kg, drug 1 week before stress, after ANOVA, FIG. 1D",0.0086
same,"p, Fisher's LSD Saline vs. drug, CFC Re-exposure Freezing (%)","129S6/SvEv mice [1]; 30 mg/kg, drug 1 week before stress, after RMANOVA, FIG. 1C",0.0086
same,"p, Fisher's PLSD Saline vs. drug, CFC Re-exposure Freezing Min 1 (%)",129S6/SvEv mice [1]; [4],0.6701
same,"p, Fisher's PLSD Saline vs. drug, CFC Re-exposure Freezing Min 2 (%)",129S6/SvEv mice [1]; [4],0.0587
same,"p, Fisher's PLSD Saline vs. drug, CFC Re-exposure Freezing Min 3 (%)",129S6/SvEv mice [1]; [4],0.1358
same,"p, Fisher's PLSD Saline vs. drug, CFC Re-exposure Freezing Min 4 (%)",129S6/SvEv mice [1]; [4],0.5515
same,"p, Fisher's PLSD Saline vs. drug, CFC Re-exposure Freezing Min 5 (%)",129S6/SvEv mice [1]; [4],0.1641
same,"p, Fisher's PLSD Saline vs. drug, CFC Re-exposure Freezing (%)","129S6/SvEv mice [1]; 30 mg/kg, drug 5 minutes after stress, after RMANOVA, FIG. 2C",0.4342
same,fear expression during CFC re-exposure,"129S6/SvEv mice [1]; 1 week prior to CFC, (R,S)-ketamine 30 mg/kg, FENM 20 and 30 mg/kg, vs saline",decreased fear expression
same,fear expression during re-exposure 2,"129S6/SvEv mice [1]; 5 min after context re-exposure 1 (24 h before re-exposure 2), (R,S)-ketamine 30 mg/kg, FENM 20 mg/kg, vs saline","but not (R,S)-ketamine, significantly decreased"
same,fear expression during CFC re-exposure 1,129S6/SvEv mice [1]; [5],significantly decreased fear expression
same,fear expression during CFC re-exposure 2,129S6/SvEv mice [1]; [5],significantly decreased fear expression
same,freezing during CFC training,129S6/SvEv mice [1]; [5],significantly increased freezing
same,"p, Freezing (%), CFC Re-exposure 2, Saline vs. drug","129S6/SvEv mice [1]; Fisher's LSD after ANOVA, FENM 20 mg/kg, (R,S)-ketamine 30 mg/kg, FIG. 4G",0.9122
same,"p, Freezing (%), CFC Re-exposure 2, Saline vs. drug","129S6/SvEv mice [1]; Fisher's LSD after RMANOVA, FENM 20 mg/kg, ketamine 30 mg/kg, FIG. 4F",0.9122
same,"p, Freezing (%), CFC Training, Saline vs. drug","129S6/SvEv mice [1]; Fisher's LSD after RMANOVA, drug 5 min before CFC, (R,S)-ketamine 30 mg/kg, FENM dose lies beyond the rows shown, FIG. 8B",0.0024
same,Behavior: Fear,129S6/SvEv mice [1]; Prophylactic (5 min before stress),↓
same,Behavior: Fear,129S6/SvEv mice [1]; Prophylactic (7 days before stress),↓
same,"CFC Training, Average Freezing, p (Fisher's LSD)","129S6/SvEv mice [1]; Saline vs. (R,S)-ketamine (30 mg/kg), FIG. 8C",0.0024
same,"CFC Re-exposure 1, Freezing Min 1 (%), p (Fisher's LSD)",129S6/SvEv mice [1]; [6],0.0066
same,"CFC Re-exposure 1, Freezing Min 2 (%), p (Fisher's LSD)",129S6/SvEv mice [1]; [6],<0.0001
same,"CFC Re-exposure 1, Freezing Min 3 (%), p (Fisher's LSD)",129S6/SvEv mice [1]; [6],<0.0001
same,"CFC Re-exposure 1, Freezing Min 4 (%), p (Fisher's LSD)",129S6/SvEv mice [1]; [6],<0.0001
same,"CFC Re-exposure 1, Freezing Min 5 (%), p (Fisher's LSD)",129S6/SvEv mice [1]; [6],<0.0001
same,"CFC Re-exposure 2, Freezing Min 1 (%), p (Fisher's LSD)",129S6/SvEv mice [1]; [7],0.4378
same,"CFC Re-exposure 2, Freezing Min 2 (%), p (Fisher's LSD)",129S6/SvEv mice [1]; [7],0.0304
same,"CFC Re-exposure 2, Freezing Min 4 (%), p (Fisher's LSD)",129S6/SvEv mice [1]; [7],<0.0001
same,"CFC Re-exposure 2, Freezing Min 5 (%), p (Fisher's LSD)",129S6/SvEv mice [1]; [7],<0.0001
same,"CFC Re-exposure 1, Freezing (%), p (Fisher's LSD)","129S6/SvEv mice [1]; Saline vs. (R,S)-ketamine (30 mg/kg), after ANOVA, FIG. 8E",<0.0001
same,"CFC Re-exposure 2, Freezing (%), p (Fisher's LSD)","129S6/SvEv mice [1]; Saline vs. (R,S)-ketamine (30 mg/kg), after ANOVA, FIG. 8G",<0.0001
same,"CFC Re-exposure 1, Freezing (%), p (Fisher's LSD)","129S6/SvEv mice [1]; Saline vs. (R,S)-ketamine (30 mg/kg), after RMANOVA, FIG. 8D",<0.0001
same,"CFC Re-exposure 2, Freezing (%), p (Fisher's LSD)","129S6/SvEv mice [1]; Saline vs. (R,S)-ketamine (30 mg/kg), after RMANOVA, FIG. 8F",<0.0001
same,"CFC Re-exposure 2, Freezing Min 3 (%), p (Fisher's LSD)","129S6/SvEv mice [1]; Saline vs. ketamine (30 mg/kg), FIG. 8F",0.0033
same,behavior during CFC training,"129S6/SvEv mice [1]; one week prior to 3-shock CFC (c-fos / Western blot cohort), (R,S)-ketamine 30 mg/kg, FENM 20 mg/kg, vs saline",did not alter behavior
same,freezing upon re-exposure,"129S6/SvEv mice [1]; one week prior to 3-shock CFC, re-exposed five days later, (R,S)-ketamine 30 mg/kg, FENM 20 mg/kg, vs saline",significantly reduced freezing
same,latency to feed in the open arena (NSF),"129S6/SvEv mice [2]; 1 week prior to CFC, (R,S)-ketamine 30 mg/kg, FENM 10, 20 or 30 mg/kg, vs saline",did not alter
same,latency to eat in the NSF arena,129S6/SvEv mice [2]; [8],did not alter
same,latency to eat in the homecage (NSF),129S6/SvEv mice [2]; [8],did not alter
same,latency to feed in the open arena (NSF),129S6/SvEv mice [2]; [5],increased the latency to feed
same,latency to feed in the home cage (NSF),129S6/SvEv mice [2]; [9],did not alter
same,latency to feed in the open arena (NSF),129S6/SvEv mice [2]; [9],did not alter
same,latency to feed in the open arena (NSF),"129S6/SvEv mice [2]; 5 minutes after CFC, re-exposure 5 days after training, (R,S)-ketamine 30 mg/kg, FENM 10, 20 or 30 mg/kg, vs saline",did not alter
same,latency to eat in the NSF arena,129S6/SvEv mice [2]; [10],did not alter
same,latency to eat in the homecage (NSF),129S6/SvEv mice [2]; [10],did not alter
same,"Novelty Suppressed Feeding, Latency to feed in OF (sec), p (Fisher's LSD)","129S6/SvEv mice [2]; Saline vs. (R,S)-ketamine (30 mg/kg), FIG. 8P",0.0575
